Reference: US20180002319A1, “MACROCYCLIC PICOLINAMIDE COMPOUNDS WITH FUNGICIDAL ACTIVITY” (DOW AGROSCIENCES LLC, priority 2014, published 2018)
Read-outs that look alike come from different tables or passages of the source.

What was measured:
Zymoseptoria tritici = test: Leaf Blotch of Wheat (SEPTTR) fungicidal activity; type: in vivo; details: wheat leaf blotch; for pest or weed control at 121.5 g/ha: Low Volume application, 121.5 g/H; for pest or weed control at 100 ppm: High Volume application
Description: Example A: Evaluation of Fungicidal Activity: Leaf Blotch of Wheat (Zymoseptoria tritici; Bayer Code […]) Technical grades of materials were dissolved in acetone, which were then mixed with nine volumes of H2O containing 110 ppm Triton X-100. The fungicide solutions were applied onto wheat seedlings using an automated booth sprayer to run-off. All sprayed plants were allowed to air dry prior to further handling. All fungicides were evaluated using the aforementioned method for their activity vs. all target diseases, unless stated otherwise. Wheat leaf blotch and brown rust activity were also evaluated using track spray applications, in which case the fungicides were formulated as EC formulations, containing 0.1% Trycol 5941 in the spray solutions. Wheat plants (variety Yuma) were grown from seed in a greenhouse in 50% mineral soil/50% soil-less Metro mix until the first leaf was fully emerged, with 7-10 seedlings per pot. These plants were inoculated with an aqueous spore suspension of Zymoseptoria tritici either prior to or after fungicide treatments. After inoculation the plants were kept in 100% relative humidity (one day in a dark dew chamber followed by two to three days in a lighted dew chamber at 20° C.) to permit spores to germinate and infect the leaf. The plants were then transferred to a greenhouse set at 20° C. for disease to develop. When disease symptoms were fully expressed on the 1st leaves of untreated plants, infection levels were assessed on a scale of 0 to 100 percent disease severity. Percent disease control was calculated using the ratio of disease severity on treated plants relative to untreated plants.

Puccinia triticina = test: Wheat Brown Rust (PUCCRT) fungicidal activity; type: in vivo; details: for pest or weed control at 121.5 g/ha: Low Volume application, 121.5 g/H; for pest or weed control at 100 ppm: High Volume application
Description: Technical grades of materials were dissolved in acetone, which were then mixed with nine volumes of H2O containing 110 ppm Triton X-100. The fungicide solutions were applied onto wheat seedlings using an automated booth sprayer to run-off. All sprayed plants were allowed to air dry prior to further handling. All fungicides were evaluated using the aforementioned method for their activity vs. all target diseases, unless stated otherwise. Wheat leaf blotch and brown rust activity were also evaluated using track spray applications, in which case the fungicides were formulated as EC formulations, containing 0.1% Trycol 5941 in the spray solutions. Wheat plants (variety Yuma) were grown from seed in a greenhouse in 50% mineral soil/50% soil-less Metro mix until the first leaf was fully emerged, with 7-10 seedlings per pot. These plants were inoculated with an aqueous spore suspension of Zymoseptoria tritici either prior to or after fungicide treatments. After inoculation the plants were kept in 100% relative humidity (one day in a dark dew chamber followed by two to three days in a lighted dew chamber at 20° C.) to permit spores to germinate and infect the leaf. The plants were then transferred to a greenhouse set at 20° C. for disease to develop. When disease symptoms were fully expressed on the 1st leaves of untreated plants, infection levels were assessed on a scale of 0 to 100 percent disease severity. Percent disease control was calculated using the ratio of disease severity on treated plants relative to untreated plants. Example B: Evaluation of Fungicidal Activity: Wheat Brown Rust (Puccinia triticina; Bayer Code PUCCRT) Wheat plants (variety Yuma) were grown from seed in a greenhouse in 50% mineral soil/50% soil-less Metro mix until the first leaf was fully emerged, with 7-10 seedlings per pot. These plants were inoculated with an aqueous spore suspension of Puccinia triticina either prior to or after fungicide treatments. After inoculation the plants were kept in a dark dew room at 22° C. with 100% relative humidity overnight to permit spores to germinate and infect the leaf. The plants were then transferred to a greenhouse set at 24° C. for disease to develop. Fungicide formulation, application and disease assessment followed the procedures as described in the Example A.

[1] = 24 h, 1 day protectant, read-out: SEPTTR disease control, 1DP (1 Day Protectant)
[2] = 72 h, 3 day curative, read-out: SEPTTR disease control, 3DC (3 Day Curative)
[3] = 24 h, 1 day protectant, read-out: PUCCRT disease control, 1DP (1 Day Protectant)
[4] = 72 h, 3 day curative, read-out: PUCCRT disease control, 3DC (3 Day Curative)

SMILES	pest or weed control at 121.5 g/ha (Zymoseptoria tritici; [1]) [%]	pest or weed control at 121.5 g/ha (Zymoseptoria tritici; [2]) [%]	pest or weed control at 121.5 g/ha (Puccinia triticina; [3]) [%]	pest or weed control at 121.5 g/ha (Puccinia triticina; [4]) [%]	pest or weed control at 100 ppm (Zymoseptoria tritici; [1]) [%]	pest or weed control at 100 ppm (Zymoseptoria tritici; [2]) [%]	pest or weed control at 100 ppm (Puccinia triticina; [3]) [%]	pest or weed control at 100 ppm (Puccinia triticina; [4]) [%]
COc1ccnc(C(=O)N[C@H]2CCCC[C@H](Cc3ccccc3)[C@@H](Oc3ccccc3)[C@H](C)OC2=O)c1OC(C)=O [Compound 64]	> 80	> 80	> 80	< 80	–	–	–	–
CCCO[C@H]1[C@H](C)OC(=O)[C@@H](NC(=O)c2nccc(OC)c2OCOC(C)=O)CCOC[C@@H]1Oc1ccccc1 [Compound 42]	< 80	< 80	> 80	< 80	–	–	–	–
CCCCO[C@H]1CCOC[C@H](NC(=O)c2nccc(OC)c2O)C(=O)O[C@@H](C)[C@@H]1OCC(C)C [Compound 87]	–	–	–	–	> 80	< 80	> 80	> 80
COc1ccnc(C(=O)N[C@H]2CCOC[C@H](OC)[C@@H](Oc3ccccc3)[C@H](C)OC2=O)c1OC(C)=O [Compound 48]	> 80	> 80	> 80	> 80	–	–	–	–
COc1ccnc(C(=O)N[C@H]2CCOC[C@H](Oc3ccccc3)[C@@H](Oc3ccccc3)[C@H](C)OC2=O)c1OC(C)=O [Compound 47]	> 80	> 80	> 80	> 80	–	–	–	–
COc1ccnc(C(=O)N[C@H]2CCCC[C@H](CC3CCCC3)[C@@H](OC)[C@H](C)OC2=O)c1O [Compound 125]	–	–	–	–	< 80	< 80	> 80	< 80
CC[C@H]1CCOC[C@H](NC(=O)c2nccc(OC)c2O)C(=O)O[C@@H](C)[C@@H]1Oc1ccccc1 [Compound 130]	–	–	–	–	< 80	> 80	> 80	> 80
COc1ccnc(C(=O)N[C@H]2CCCC[C@@H]3OC(C)(C)O[C@H]3[C@H](C)OC2=O)c1OCOC(C)=O [Compound 33]	< 80	> 80	> 80	> 80	–	–	–	–
COc1ccnc(C(=O)N[C@H]2COCC[C@H](OCC(C)C)[C@@H](OCC(C)C)[C@H](C)OC2=O)c1O [Compound 86]	–	–	–	–	< 80	> 80	> 80	< 80
COc1ccnc(C(=O)N[C@H]2CCCC[C@H](OCC(C)C)[C@@H](OCC(C)C)[C@H](C)OC2=O)c1O [Compound 89]	–	–	–	–	< 80	< 80	< 80	–
CCC[C@H]1CCCC[C@H](NC(=O)c2nccc(OC)c2OCOC(C)=O)C(=O)O[C@@H](C)[C@@H]1OC(=O)C(C)C [Compound 31]	< 80	< 80	> 80	< 80	–	–	–	–
COc1ccnc(C(=O)N[C@H]2CCCC[C@H](OC)[C@@H](OC)[C@H](C)OC2=O)c1OCOC(C)=O [Compound 22]	–	< 80	> 80	> 80	–	–	–	–
COc1ccnc(C(=O)N[C@H]2COCC[C@H](Cc3ccccc3)[C@@H](OCC(C)C)[C@H](C)OC2=O)c1O [Compound 101]	–	–	–	–	< 80	< 80	< 80	< 80
CC(=O)OCOc1cccnc1C(=O)N[C@H]1CCCC[C@H](CC2CCCC2)[C@@H](Oc2ccccc2)[C@H](C)OC1=O [Compound 49]	< 80	–	> 80	< 80	< 80	< 80	> 80	–
COc1ccnc(C(=O)N[C@H]2CCCC[C@H](Cc3ccccc3)[C@@H](OC(=O)C(C)C)[C@H](C)OC2=O)c1O [Compound 127]	–	–	–	–	> 80	< 80	> 80	> 80
CCCOC(=O)O[C@H]1CCCC[C@H](NC(=O)c2nccc(OC)c2OCOC(C)=O)C(=O)O[C@@H](C)[C@@H]1OCC(C)C [Compound 38]	> 80	> 80	> 80	< 80	–	–	–	–
CC[C@H]1CCOC[C@H](NC(=O)c2nccc(OC)c2OC(C)=O)C(=O)O[C@@H](C)[C@@H]1OC(=O)c1ccccc1 [Compound 80]	> 80	< 80	> 80	> 80	–	–	–	–
C=CCO[C@@H]1[C@@H](CC2CCCC2)CCCC[C@H](NC(=O)c2nccc(OC)c2O)C(=O)O[C@H]1C [Compound 122]	–	–	–	–	< 80	< 80	< 80	–
COc1ccnc(C(=O)N[C@H]2CCOC[C@H](Cc3ccccc3)[C@@H](OCC(C)C)[C@H](C)OC2=O)c1OCOC(C)=O [Compound 16]	< 80	< 80	> 80	< 80	> 80	< 80	> 80	> 80
COc1ccnc(C(=O)N[C@H]2COCC[C@H](Cc3ccc(F)cc3)[C@@H](OC(=O)C(C)C)[C@H](C)OC2=O)c1OC(C)=O [Compound 75]	> 80	< 80	> 80	> 80	–	–	–	–
CCCCO[C@H]1CCOC[C@H](NC(=O)c2nccc(OC)c2O)C(=O)O[C@@H](C)[C@@H]1OCc1ccccc1 [Compound 82]	–	–	–	–	< 80	> 80	> 80	> 80
COc1ccc(C[C@H]2CCOC[C@H](NC(=O)c3nccc(OC)c3O)C(=O)O[C@@H](C)[C@@H]2Oc2ccccc2)cc1 [Compound 129]	–	–	–	–	> 80	–	> 80	> 80
COc1ccnc(C(=O)N[C@H]2CCCC[C@@H]3OC(C)(C)O[C@H]3[C@H](C)OC2=O)c1O [Compound 104]	–	–	–	–	< 80	< 80	> 80	> 80
COc1ccc(C[C@H]2CCOC[C@H](NC(=O)c3nccc(OC)c3OCOC(C)=O)C(=O)O[C@@H](C)[C@@H]2Oc2ccccc2)cc1 [Compound 66]	> 80	> 80	> 80	< 80	–	–	–	–
COc1ccnc(C(=O)N[C@H]2COCC[C@H](Cc3ccc(F)cc3)[C@@H](OC(=O)C(C)C)[C@H](C)OC2=O)c1O [Compound 134]	–	–	–	–	> 80	> 80	> 80	< 80
